Results from ChEMBL document CHEMBL5058564, “EUbOPEN Chemogenomics Library 2 (Incucyte)” (2022).

Experiments:
Assay type in all cases: toxicity, cell-based
HEK-293T = assay: Incucyte cell viability with HEK293T; conditions: human, 10 µM, compound concentration 10 uM
Fibroblast = assay: Incucyte cell viability with human fibroblast; conditions: 10 µM, compound concentration 10 uM
U2OS = assay: Incucyte cell viability with U2OS; conditions: human, 10 µM, compound concentration 10 uM
[1] = 0 h, replicate number 1, timepoint 0 hours
[2] = 0 h, replicate number 2, timepoint 0 hours
[3] = 6 h, replicate number 2, timepoint 6 hours
[4] = 18 h, replicate number 2, timepoint 18 hours
[5] = 24 h, replicate number 1, timepoint 24 hours
[6] = 24 h, replicate number 2, timepoint 24 hours
[7] = 6 h, replicate number 1, timepoint 6 hours
[8] = 18 h, replicate number 1, timepoint 18 hours
[9] = 12 h, replicate number 1, timepoint 12 hours
[10] = 12 h, replicate number 2, timepoint 12 hours
Note: unitless GR value; below 1 slowed growth and below 0 cell loss.

| Structure (SMILES) | Growth Rate (HEK-293T; [1]) | Growth Rate (HEK-293T; [3]) | Growth Rate (HEK-293T; [4]) | Growth Rate (HEK-293T; [5]) | Growth Rate (HEK-293T; [6]) | Growth Rate (Fibroblast; [7]) | Growth Rate (Fibroblast; [8]) | Growth Rate (Fibroblast; [5]) | Growth Rate (U2OS; [9]) | Growth Rate (U2OS; [8]) | Growth Rate (U2OS; [5]) | Growth Rate (HEK-293T; [7]) | Growth Rate (HEK-293T; [9]) | Growth Rate (HEK-293T; [10]) | Growth Rate (HEK-293T; [8]) | Growth Rate (Fibroblast; [1]) | Growth Rate (Fibroblast; [2]) | Growth Rate (U2OS; [4]) | Growth Rate (U2OS; [6]) | Growth Rate (Fibroblast; [3]) | also measured |
| --- | --- | --- | --- | --- | --- | --- | --- | --- | --- | --- | --- | --- | --- | --- | --- | --- | --- | --- | --- | --- | --- |
| CN[C@@H]1CCc2[nH]c3ccc(C(N)=O)cc3c2C1.O.O=C(O)CCC(=O)O [FROVATRIPTAN SUCCINATE] | -0.07 | 0.9 | 0.94 | 0.98 | 0.82 | 0.36 | 0.81 | 0.66 | 0.48 | 0.74 | 0.63 | – | – | – | – | – | – | – | – | – | Growth Rate (HEK-293T; [2]): 0.02; Growth Rate (U2OS; [1]): -0.34; Growth Rate (U2OS; [2]): 0.89; Growth Rate (U2OS; [7]): 0.73 |
| CC1(COc2ccc3c(c2)ncn3-c2ccc3cccc(N4CCC(N)CC4)c3n2)COC1 [CRENOLANIB] | -0.26 | -0.5 | -0.21 | -0.22 | -0.19 | – | – | – | – | 0.87 | 0.54 | -0.46 | -0.32 | -0.23 | -0.28 | -0.8 | -0.75 | 0.92 | 0.8 | – | Growth Rate (HEK-293T; [2]): -0.11 |
| Cc1[nH]cnc1CN1CCc2c(c3ccccc3n2C)C1=O [ALOSETRON] | 0.73 | 0.39 | 0.96 | – | – | – | – | – | – | 0.89 | – | – | – | – | – | 0.35 | – | 0.87 | 0.9 | 0.22 | Growth Rate (Fibroblast; [4]): 1; Growth Rate (U2OS; [7]): 0.03 |
| O=C1NC(=Nc2c(Cl)cccc2Cl)S/C1=C\c1ccc2nccnc2c1 | 0.36 | 0.18 | 0.05 | 0.26 | 0.15 | 0.24 | 0.4 | 0.39 | 0.33 | 0.55 | 0.63 | 0.34 | 0.15 | -0.06 | 0.07 | 0.9 | 0.72 | 0.57 | 0.59 | 0.79 | Growth Rate (HEK-293T; [2]): 0.37; Growth Rate (Fibroblast; [9]): 0.09; Growth Rate (Fibroblast; [10]): 0.32; Growth Rate (Fibroblast; [4]): 0.61; Growth Rate (Fibroblast; [6]): 0.48; Growth Rate (U2OS; [2]): -0.91; Growth Rate (U2OS; [7]): 0; Growth Rate (U2OS; [3]): 0.81; Growth Rate (U2OS; [10]): 0.54 |
| CC(=O)NCC(=O)N1[C@@H]2CC[C@H]1c1ccc(Nc3ncc(C(F)(F)F)c(NC4CCC4)n3)cc12 [PF-03814735] | – | -0.88 | -0.48 | -0.31 | -0.41 | – | 0.72 | 0.26 | 0.23 | 0.36 | 0.28 | -0.73 | -0.54 | -0.65 | -0.45 | -0.04 | -0.37 | 0.22 | 0.12 | – | Growth Rate (Fibroblast; [9]): 0.58; Growth Rate (Fibroblast; [4]): 0.79; Growth Rate (Fibroblast; [6]): 0.62; Growth Rate (U2OS; [1]): -0.24; Growth Rate (U2OS; [10]): 0.56 |
| CNCCN1CCC(c2cc(CN(C)C(=O)c3cccc(Oc4ccccc4)c3)ccn2)CC1 | – | – | 0.92 | 1 | 0.81 | 0.73 | 0.55 | 0.43 | 0.88 | 0.96 | 0.37 | 0.74 | 0.76 | 0.86 | 0.98 | 0.7 | 0.9 | – | – | 0.98 | Growth Rate (Fibroblast; [9]): 0.83; Growth Rate (U2OS; [1]): -0.2; Growth Rate (U2OS; [2]): 0.56; Growth Rate (U2OS; [3]): 0.98; Growth Rate (U2OS; [10]): 0.99 |
| CC(C)Oc1ccc(-c2nc(-c3cccc4c3CC[C@@H]4NCCO)no2)cc1C#N [OZANIMOD] | – | -0.68 | -0.35 | -0.25 | -0.29 | 0.57 | 0.03 | -0.09 | 0.37 | 0.41 | 0.38 | -0.7 | -0.42 | -0.34 | -0.32 | – | – | 0.01 | 0.04 | 0.42 | Growth Rate (Fibroblast; [9]): 0.12; Growth Rate (Fibroblast; [10]): -0.28; Growth Rate (Fibroblast; [4]): -0.49; Growth Rate (Fibroblast; [6]): -0.43; Growth Rate (U2OS; [3]): -0.16; Growth Rate (U2OS; [10]): -0.05 |
